From US20100093777A1 (Takeda Pharmaceutical Company Limited, priority 2007, published 2010)
pIC50: −log10 of the molar value.

Legend:
[1] = biological target: T1, Human ACC1 (Homo sapiens, UniProt Q13085); experiment: Measurement of ACC1 inhibitory activity (recombinant enzyme, malachite green absorbance); format: biochemical; settings: recombinant human ACC1 8 μg/ml; 30° C.; 200 μM ATP, 200 μM Acetyl-CoA; absorbance 620 nm
T1 construct: His tag (from the pFAST-BacHTc vector); own knowledge: N-terminal 6xHis with TEV site; made in house; host or cells: SF-9 insect cells, recombinant baculovirus BAC-ACC1
Procedure: The ACC1 inhibitory action of the compound of the present invention was evaluated by the following method.
Human ACC1 gene was cloned by PCR using a human liver cDNA library (Clontech) as a template and Primer 1 and Primer 2 shown below. Primer 1 and Primer 2 were prepared by adding SalI, NotI restriction enzyme recognition sequence based on the information of the base sequence (Genbank Accession U19822) of human ACC1 gene.
(§1) PCR was performed using a Pyrobest DNA polymerase (TAKARA BIO INC.) The obtained PCR product was cloned to pT7 Blue vector (Novagen) and, after confirmation of the base sequence, digested with restriction enzymes SalI and NotI. The obtained DNA fragment was inserted to pFAST-BacHTc (Invitrogen) digested with restriction enzymes SalI and NotI to give expression plasmid ACC1/pFAST-BacHTc.
Using the expression plasmid and BAC-TO-BAC Baculovirus Expression System (Invitrogen), virus stock BAC-ACC1 of recombinant Baculovirus was prepared.
SF-9 cells (Invitrogen) were inoculated to a medium (1 L) for insect cells (Sf-900IISFM medium (Invitrogen) containing 10% fetal bovine serum (Trace), 50 mg/L Gentamicin (Invitrogen) and 0.1% Pluronic F-68 (Invitrogen)) at 1×10^6 cells/mL, and cultured with shaking at 27° C., 100 rpm in a 2 L Erlenmeyer flask.
After 24 hr of the culture, recombinant Baculovirus BAC-ACC1 (10 mL) was added, and the cells were further cultured for 3 days. The culture medium was centrifuged at 1000×g for 5 min to give virus-infected cells. The cells were washed with phosphate buffered saline (Invitrogen), and centrifuged under the same conditions, and the obtained cells were cryopreserved at −80° C.
The cryopreserved cells were thawed in ice and suspended in 100 mL of 25 mM HEPES buffer (pH 7.5) containing 10% Glycerol, 0.13 M NaCl, 1 mM EDTA, 25 mM Sodium β-Glycerophosphate and 1 mM Sodium Orthovanadate, and supplemented with Complete Protease Inhibitor (Nippon Boehringer Ingelheim Co., Ltd.). The obtained suspension was homogenized 3 times in a polytron homogenizer (Kinematica) at 20,000 rpm for 30 sec. The obtained cell disruption solution was clarified by centrifugation at 185700×g for 50 min, and filtered through a 0.45 μm filter. The filtrate was passed through a column packed with 12 mL of Ni-NTA Super Flow Gel (QUIAGEN) at a flow rate of about 5 mL/min. The column was washed with buffer A (50 mM HEPES (pH 7.5) containing 0.3 M NaCl), further washed with buffer A containing 20 mM Imidazole, and eluted with buffer A containing 100 mM Imidazole. The eluate was concentrated with Vivaspin 20 (Vivascience) with a molecular weight cut off of 30K. The obtained concentrate was dialyzed against Sephadex G-25 (Amersham Biosciences, 358 ml) equilibrated with 50 mM HEPES (pH 7.5) containing 10 mM MgCl2, 2 mM Dithiothreitol, 10 mM Tripotassium Citrate and 0.3 M NaCl. The inner dialysate was concentrated with Vivaspin 20 (Vivascience) with a molecular weight cut off of 30K, and the concentrate was filtered through a 0.22 μm filter to give ACC1. The obtained ACC1 was cryopreserved at −80° C.
ACC1 (0.93 mg/ml) obtained in the above-mentioned (2) was diluted with an enzyme reaction buffer (50 mM HEPES (pH 7.5), 10 mM MgCl2, 10 mM Tripotassium Citrate, 2 mM Dithiothreitol, 0.75 mg/ml Fatty acid free BSA) to concentration of 8 μg/ml, and the mixture was added to each well of 384 well assay plate (Nunc 265196) by 10 μl.
Thereafter, ACC1 inhibitory rate (%) was measured in the same manner as in the below-mentioned Experimental Example 2-(3), and IC50 value was calculated.
ACC2 (Nd) (1.1 mg/ml) obtained in the above-mentioned (2) was diluted with an enzyme reaction buffer (50 mM HEPES (pH 7.5), 10 mM MgCl2, 10 mM Tripotassium Citrate, 2 mM Dithiothreitol, 0.75 mg/ml Fatty acid free BSA) to a concentration of 6.4 μg/ml, and the mixture was added to each well of a 384 well assay plate (Nunc 265196) by 10 μl. […]

[2] = biological target: T2, Human ACC2 (Nd, N terminal deleted) (Homo sapiens, UniProt O00763); experiment: Measurement of ACC2 inhibitory activity (recombinant ACC2 (Nd), malachite green absorbance); format: biochemical; settings: recombinant human ACC2 (Nd) 6.4 μg/ml; 30° C.; 200 μM ATP, 200 μM Acetyl-CoA; absorbance 620 nm
T2 construct: His tag (from the pFAST-BacHTa vector); own knowledge: N-terminal 6xHis with TEV site; made in house; host or cells: SF-9 insect cells, recombinant baculovirus BAC-ACC2 (Nd)
Procedure: The ACC2 inhibitory action of the compound of the present invention was evaluated by the following method.
Human ACC2 gene was cloned by PCR using a human skeletal muscle cDNA library (Clontech) as a template and Primer 1 and Primer 2 shown below. Primer 1 and Primer 2 were prepared by adding SalI, XbaI restriction enzyme recognition sequences based on the information of the base sequence (Genbank Accession U89344) of human ACC2 gene.
as §1, with “using” for “using a”, “INC.).” for “INC.)”, “XbaI.” for “NotI.”, “into pFAST-BacHTa” for “to pFAST-BacHTc”, “XbaI” for “NotI”, “ACC2/pFAST-BacHTa.” for “ACC1/pFAST-BacHTc.”
PCR was performed using the expression plasmid as a template and Primer 3 and Primer 4 shown below to prepare a plasmid to be used for expression of ACC2 free of mitochondrial targeting sequence.
as §1, with “Pyrobest-DNA” for “a Pyrobest DNA”, “INC.).” for “INC.)”, “AflII.” for “NotI.”, “into pFAST-BacHTa” for “to pFAST-BacHTc”, “AflII” for “NotI”, “ACC2mito7/pFAST-BacHTa.” for “ACC1/pFAST-BacHTc.”
Using the expression plasmid and BAC-TO-BAC Baculovirus Expression System (Invitrogen), virus stock BAC-ACC2 (N terminal deleted (hereinafter Nd)) of recombinant Baculovirus was prepared.
SF-9 cells (Invitrogen) were inoculated to a medium (2 L) for insect cells (Sf-900IISFM medium (Invitrogen) containing 10% fetal bovine serum (Trace), 50 mg/L Gentamicin (Invitrogen), 0.1% Pluronic F-68 (Invitrogen)) at 0.5×10^6 cells/mL, and cultured with shaking in Wave Bioreactor (Wave) at 27° C., 20 rpm, rocking angle […], oxygen concentration 30%.
On day 4 of the culture, 3 L of the medium for insect cells was added, the rocking angle was set to 8°, and the cells were cultured. On day 5 of the culture, 100 mL of recombinant Baculovirus BAC-ACC2 (Nd) was added, 5 L of the medium for insect cells was further added, the rocking angle was set to 11°, and the cells were cultured for 3 days. The culture medium was centrifuged at 1000×g for 10 min to give virus-infected cells. The cells were washed with phosphate buffered saline (Invitrogen) and centrifuged under the same conditions. The obtained cells were cryopreserved at −80° C.
The cryopreserved cells were thawed in ice and suspended in 900 mL of 25 mM HEPES buffer (pH 7.5) containing 10% Glycerol, 0.13 M NaCl, 1 mM EDTA, 25 mM Sodium βGlycerophosphate and 1 mM Sodium Orthovanadate, and supplemented with Complete Protease Inhibitor (Nippon Boehringer Ingelheim Co., Ltd.). The obtained suspension was homogenized 3 times in a polytron homogenizer (Kinematica) at 20,000 rpm for 30 sec. The obtained cell disruption solution was clarified by centrifugation at 31000×g for 60 min, and filtered through a 0.45 μm filter. The filtrate was passed through a column packed with 60 mL of Ni-NTA Super Flow Gel (QUIAGEN) at a flow rate of about 5 mL/min. The column was washed with buffer A (50 mM HEPES (pH 7.5) containing 0.3 M NaCl), further washed with buffer A containing 20 mM Imidazole, and eluted with buffer A containing 100 mM Imidazole. The eluate was concentrated with Vivaspin 20 (Vivascience) with a molecular weight cut off of 30K. The obtained concentrate was dialyzed against 50 mM HEPES (pH 7.5) containing 10 mM MgCl2, 2[…] Dithiothreitol, 10 mM Tripotassium Citrate and 0.3 M NaCl. The inner dialysate was filtered through a 0.22 μm filter to give ACC2 (Nd). The obtained ACC2 (Nd) was cryopreserved at −80° C.
A test compound was dissolved in dimethyl sulfoxide (DMSO) and the mixture was diluted with an enzyme reaction buffer and the resulting solution (5 μl) was added to each well.

T2 sequence (O00763 117-2458 limits assumed, stated change not applied): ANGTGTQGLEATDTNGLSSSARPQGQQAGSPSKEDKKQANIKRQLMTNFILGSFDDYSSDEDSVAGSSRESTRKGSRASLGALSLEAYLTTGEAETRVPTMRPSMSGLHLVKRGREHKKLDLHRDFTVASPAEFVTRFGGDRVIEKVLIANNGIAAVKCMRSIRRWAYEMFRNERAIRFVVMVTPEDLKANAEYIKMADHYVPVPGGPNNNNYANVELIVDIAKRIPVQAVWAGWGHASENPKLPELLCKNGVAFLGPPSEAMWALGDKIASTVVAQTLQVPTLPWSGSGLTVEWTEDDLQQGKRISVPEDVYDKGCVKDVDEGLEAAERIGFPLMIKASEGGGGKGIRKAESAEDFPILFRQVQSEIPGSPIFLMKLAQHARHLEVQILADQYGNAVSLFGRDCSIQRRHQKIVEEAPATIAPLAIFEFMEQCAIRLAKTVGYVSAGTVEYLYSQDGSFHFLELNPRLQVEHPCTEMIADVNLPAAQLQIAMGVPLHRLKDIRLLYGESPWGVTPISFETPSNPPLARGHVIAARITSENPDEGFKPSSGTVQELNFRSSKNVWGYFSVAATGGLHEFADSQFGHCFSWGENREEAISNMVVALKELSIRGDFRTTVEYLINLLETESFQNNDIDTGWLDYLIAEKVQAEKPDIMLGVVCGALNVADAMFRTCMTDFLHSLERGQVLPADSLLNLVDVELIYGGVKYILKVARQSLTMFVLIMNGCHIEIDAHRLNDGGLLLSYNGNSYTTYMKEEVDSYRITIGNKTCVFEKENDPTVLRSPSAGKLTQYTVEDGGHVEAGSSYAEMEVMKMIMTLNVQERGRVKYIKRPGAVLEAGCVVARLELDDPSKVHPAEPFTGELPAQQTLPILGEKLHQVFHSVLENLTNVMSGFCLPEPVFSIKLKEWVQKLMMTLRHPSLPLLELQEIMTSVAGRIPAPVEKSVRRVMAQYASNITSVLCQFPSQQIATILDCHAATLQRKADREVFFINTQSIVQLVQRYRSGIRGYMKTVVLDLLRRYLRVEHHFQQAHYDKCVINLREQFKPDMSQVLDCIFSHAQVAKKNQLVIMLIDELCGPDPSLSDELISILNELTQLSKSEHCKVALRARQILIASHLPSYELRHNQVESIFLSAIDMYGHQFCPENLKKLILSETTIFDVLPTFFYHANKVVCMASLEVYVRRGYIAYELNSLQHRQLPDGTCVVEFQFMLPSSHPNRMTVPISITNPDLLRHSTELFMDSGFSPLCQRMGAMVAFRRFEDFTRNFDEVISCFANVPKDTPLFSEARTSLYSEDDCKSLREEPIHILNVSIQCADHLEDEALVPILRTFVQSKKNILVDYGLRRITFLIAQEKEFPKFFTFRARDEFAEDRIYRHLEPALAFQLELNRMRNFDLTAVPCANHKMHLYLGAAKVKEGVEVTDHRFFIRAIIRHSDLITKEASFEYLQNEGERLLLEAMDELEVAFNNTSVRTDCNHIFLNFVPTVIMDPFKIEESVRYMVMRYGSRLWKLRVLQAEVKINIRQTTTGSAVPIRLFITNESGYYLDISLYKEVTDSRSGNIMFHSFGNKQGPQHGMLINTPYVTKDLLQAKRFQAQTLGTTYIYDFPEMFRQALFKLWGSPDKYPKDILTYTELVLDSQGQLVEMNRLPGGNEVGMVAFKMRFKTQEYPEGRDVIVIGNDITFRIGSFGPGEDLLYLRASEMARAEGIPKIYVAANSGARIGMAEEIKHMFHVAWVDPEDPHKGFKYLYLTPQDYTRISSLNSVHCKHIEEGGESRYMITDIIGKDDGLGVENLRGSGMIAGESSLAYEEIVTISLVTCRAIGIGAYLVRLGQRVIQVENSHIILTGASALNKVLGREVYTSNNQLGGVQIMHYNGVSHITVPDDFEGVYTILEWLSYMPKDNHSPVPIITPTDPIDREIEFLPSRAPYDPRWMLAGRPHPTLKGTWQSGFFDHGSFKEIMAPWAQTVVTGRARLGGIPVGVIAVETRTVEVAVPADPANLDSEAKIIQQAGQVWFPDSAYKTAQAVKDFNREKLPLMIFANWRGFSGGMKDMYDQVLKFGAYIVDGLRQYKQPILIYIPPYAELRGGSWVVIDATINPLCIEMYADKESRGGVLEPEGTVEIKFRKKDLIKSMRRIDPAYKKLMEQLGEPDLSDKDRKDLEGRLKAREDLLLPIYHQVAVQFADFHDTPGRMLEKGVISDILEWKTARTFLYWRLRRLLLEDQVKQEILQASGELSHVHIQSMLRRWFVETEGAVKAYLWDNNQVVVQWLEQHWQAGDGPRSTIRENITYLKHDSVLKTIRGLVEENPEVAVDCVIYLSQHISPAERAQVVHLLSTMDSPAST

Row | melting point [°C] | pIC50 [1] | pIC50 [2] | Structure (SMILES)
1 | 195 to 198 |  |  | CNC(=O)Nc1sc2nc(C)ccc2c1C(=O)N1CCC(N2CCCC3(CCN(C(C)C)C3=O)C2)CC1 (centres unmarked) [Example 64, N-(3-{[4-(2-isopropyl-1-oxo-2,7-diazaspiro[4.5]dec-7-yl)piperidin-1-yl]carbonyl}-6-methylthieno[2,3-b]pyridin-2-yl)-N′-methylurea]
2 |  | 7.00 to 8.00 | 8.00 to 9.00 | CCNC(=O)Nc1sc2nc(C)ccc2c1C(=O)N1CCC(N2CCCC3(CCN(C(C)C)C3=O)C2)CC1 (single isomer, unassigned) [Example 65, N-ethyl-N′-(3-{[4-(2-isopropyl-1-oxo-2,7-diazaspiro[4.5]dec-7-yl)piperidin-1-yl]carbonyl}-6-methylthieno[2,3-b]pyridin-2-yl)urea]
3 |  | 7.00 to 8.00 | 8.00 to 9.00 | CNC(=O)Nc1sc2nc(C)ccc2c1C(=O)N1CCC(N2CCCC3(CC(=O)N(C(C)C)C3=O)C2)CC1 (single isomer, unassigned) [Example 18, N-(3-{[4-(2-isopropyl-1,3-dioxo-2,7-diazaspiro[4.5]dec-7-yl)piperidin-1-yl]carbonyl}-6-methylthieno[2,3-b]pyridin-2-yl)-N′-methylurea]
